# US20240400553A1, “AMINE BASED MATRIPTASE 2 INHIBITORS AND USES THEREOF” (Disc Medicine, Inc., priority 2023, published 2024)
# Target: T1, Human Recombinant Matriptase 2 (Homo sapiens, UniProt Q8IU80)
# T1 construct: made in house
# T1 sequence (Q8IU80 1-811): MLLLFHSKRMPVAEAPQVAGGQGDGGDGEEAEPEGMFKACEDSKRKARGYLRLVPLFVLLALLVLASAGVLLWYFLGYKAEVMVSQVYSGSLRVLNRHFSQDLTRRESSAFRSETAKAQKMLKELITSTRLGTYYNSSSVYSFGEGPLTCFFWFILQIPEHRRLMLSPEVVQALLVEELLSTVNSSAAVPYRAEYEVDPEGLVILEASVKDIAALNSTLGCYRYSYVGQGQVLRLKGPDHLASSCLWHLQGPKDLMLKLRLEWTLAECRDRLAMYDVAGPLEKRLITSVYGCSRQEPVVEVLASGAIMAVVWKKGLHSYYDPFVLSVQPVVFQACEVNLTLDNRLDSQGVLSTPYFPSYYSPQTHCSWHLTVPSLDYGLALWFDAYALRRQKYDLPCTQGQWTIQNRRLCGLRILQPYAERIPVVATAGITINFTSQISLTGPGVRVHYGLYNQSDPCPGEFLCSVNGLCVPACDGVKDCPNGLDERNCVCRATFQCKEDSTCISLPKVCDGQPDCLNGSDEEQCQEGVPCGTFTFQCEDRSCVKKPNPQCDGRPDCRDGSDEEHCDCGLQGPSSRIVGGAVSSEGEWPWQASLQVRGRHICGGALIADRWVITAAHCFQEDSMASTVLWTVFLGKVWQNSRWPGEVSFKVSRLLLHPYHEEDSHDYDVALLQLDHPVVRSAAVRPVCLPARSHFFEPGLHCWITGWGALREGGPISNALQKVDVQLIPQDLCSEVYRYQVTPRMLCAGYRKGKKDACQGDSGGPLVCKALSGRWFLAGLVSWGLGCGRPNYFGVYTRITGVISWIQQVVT
# Assay: Matriptase 2 inhibition, fluorescence based assay (Method I)
# Assay type: biochemical
# Conditions: Table A; Ki of Matriptase-2; read-out: Mat-2 Ki
# How it was run: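 In-house recombinant enzyme (3.5 nM), preincubated 30 min with compound, then Boc-Gln-Ala-Arg-AMC substrate (62 μM) in 50 mM Tris pH 7.5, 150 mM NaCl, 0.01% gelatin, 1% DMSO, 25 °C. Fluorescence (Ex 360/Em 480 nm) read 60 min after substrate; IC50 from variable-slope sigmoidal fit of % inhibition.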
row,Structure (SMILES),Ki [nM]
1,NCc1ccc2cc(C(=O)OC[C@H]3CNCCO3)n(Cc3cc(NS(=O)(=O)Cc4ccccc4)cc4ccccc34)c2n1 [Compound 36],≤ 100
2,"CN(C)C(=O)CCCNC(=O)c1cc2ccc(CN)nc2n1Cc1cc(NS(=O)(=O)Cc2ccccc2)cc2ccccc12 [Compound 38, 4-{[6-(aminomethyl)-1-{[3-(phenylmethane-sulfonamido)naphthalen-1-yl]methyl}-1H-pyr-rolo[2,3-b]pyridin-2-yl]-formamido}-N,N-dimethylbutanamide]",≤ 100
3,"CN1CCC(CCOC(=O)c2cc3ccc(CN)nc3n2Cc2cc(NS(=O)(=O)Cc3ccccc3)cc3ccccc23)CC1 [Compound 39, 2-(1-methylpiperidin-4-yl)ethyl 6-(aminometh-yl)-1-{[3-(phenylmeth-anesulfonamido)naph-thalen-1-yl]methyl}-1H-pyrrolo[2,3-b]pyridine-2-carboxylate]",≤ 100
4,"CC(C)(CN)COC(=O)c1cc2ccc(CN)nc2n1Cc1cc(NS(=O)(=O)Cc2ccccc2)cc2ccccc12 [Compound 40, 3-amino-2,2-dimethyl-propyl 6-(aminomethyl)-1-{[3-(phenylmethane-sulfonamido)naphthalen-1-yl]methyl}-1H-pyrrolo-[2,3-b]pyridine-2-car-boxylate]",≤ 100
5,"CN1CCC(COC(=O)c2cc3ccc(CN)nc3n2Cc2cc(NS(=O)(=O)C(F)(F)c3ccccc3)cc3ccccc23)CC1 [Compound 42, (1-methylpiperidin-4-yl)methyl 6-(aminometh-yl)-1-({3-[difluoro(phen-yl)methanesulfonamido]-naphthalen-1-yl}meth-yl)-1H-pyrrolo[2,3-b]-pyridine-2-carboxylate]",≤ 100
6,"CC(C)CN1CCC(COC(=O)c2cc3ccc(CN)nc3n2Cc2cc(NS(=O)(=O)Cc3ccccc3)cc3ccccc23)CC1 [Compound 43, [1-(2-methylpropyl)-piperidin-4-yl]methyl 6-(aminomethyl)-1-{[3-(phenylmethanesulfon-amido)naphthalen-1-yl]-methyl}-1H-pyrrolo[2,3-b]pyridine-2-carboxylate]",≤ 100
7,"CN1CCC(CCNC(=O)c2cc3ccc(CN)nc3n2Cc2cc(NS(=O)(=O)Cc3ccccc3)cc3ccccc23)CC1 [Compound 44, 6-(aminomethyl)-N-[2-(1-methylpiperidin-4-yl)ethyl]-1-{[3-(phenyl-methanesulfonamido)-naphthalen-1-yl]methyl}-1H-pyrrolo[2,3-b]pyr-idine-2-carboxamide]",≤ 100
8,"CC(C)(C)n1ccnc1COC(=O)c1cc2ccc(CN)nc2n1Cc1cc(NS(=O)(=O)Cc2ccccc2)cc2ccccc12 [Compound 46, (1-tert-butyl-1H-imid-azol-2-yl)methyl 6-(aminomethyl)-1-{[3-(phenylmethanesulfon-amido)naphthalen-1-yl]-methyl}-1H-pyrrolo[2,3-b]pyridine-2-carboxylate]",≤ 100
9,"CN(C)CCCOC(=O)c1cc2ccc(CN)nc2n1Cc1cc(NS(=O)(=O)Cc2ccccc2)cc2ccccc12 [Compound 47, 3-(dimethylamino)prop-yl 6-(aminomethyl)-1-{[3-(phenylmethane-sulfonamido)naphthalen-1-yl]methyl}-1H-pyr-rolo[2,3-b]pyridine-2-carboxylate]",≤ 100
10,"CN(C)CCOC(=O)c1cc2ccc(CN)nc2n1Cc1cc(NS(=O)(=O)Cc2ccccc2)cc2ccccc12 [Compound 49, 2-(dimethylamino)ethyl 6-(aminomethyl)-1-{[3-(phenylmethanesulfon-amido)naphthalen-1-yl]-methyl}-1H-pyrrolo[2,3-b]pyridine-2-carboxylate]",≤ 100
11,"NCc1ccc2cc(C(=O)OCCN3CCOCC3)n(Cc3cc(NS(=O)(=O)Cc4ccccc4)cc4ccccc34)c2n1 [Compound 50, 2-(morpholin-4-yl)ethyl 6-(aminomethyl)-1-{[3-(phenylmethanesulfon-amido)naphthalen-1-yl]-methyl}-1H-pyrrolo[2,3-b]pyridine-2-carboxylate]",≤ 100
12,"CC(C)N(C)CCOC(=O)c1cc2ccc(CN)nc2n1Cc1cc(NS(=O)(=O)Cc2ccccc2)cc2ccccc12 [Compound 52, 2-[methyl(propan-2-yl)-amino]ethyl 6-(amino-methyl)-1-{[3-(phenyl-methanesulfonamido)-naphthalen-1-yl]methyl}-1H-pyrrolo[2,3-b]pyr-idine-2-carboxylate]",≤ 100
13,"CNCCOC(=O)c1cc2ccc(CN)nc2n1Cc1cc(NS(=O)(=O)Cc2ccccc2)cc2ccccc12 [Compound 53, 2-(methylamino)ethyl 6-(aminomethyl)-1-{[3-(phenylmethanesulfon-amido)naphthalen-1-yl]-methyl}-1H-pyrrolo[2,3-b]pyridine-2-carboxylate]",≤ 100

# The next lines start with the values.
row,Ki [nM],Structure (SMILES)
1,≤ 100,"Cn1cncc1COC(=O)c1cc2ccc(CN)nc2n1Cc1cc(NS(=O)(=O)Cc2ccccc2)cc2ccccc12 [Compound 20, (1-methyl-1H-imidazol-5-yl)methyl 6-(amino-methyl)-1-{[3-(phenyl-methanesulfonamido)-naphthalen-1-yl]methyl}-1H-pyrrolo[2,3-b]pyr-idine-2-carboxylate]"
2,≤ 100,"NCc1ccc2cc(C(=O)OCC3CCN(CC4CC4)CC3)n(Cc3cc(NS(=O)(=O)Cc4ccccc4)cc4ccccc34)c2n1 [Compound 21, [1-(cyclopropylmeth-yl)piperidin-4-yl]methyl 6-(aminomethyl)-1-{[3-(phenylmethanesulfon-amido)naphthalen-1-yl]-methyl}-1H-pyrrolo[2,3-b]pyridine-2-carboxylate]"
3,≤ 100,"NCc1ccc2cc(C(=O)OC[C@H]3COCCN3)n(Cc3cc(NS(=O)(=O)Cc4ccccc4)cc4ccccc34)c2n1 [Compound 22, [(3R)-morpholin-3-yl]-methyl 6-(aminomethyl)-1-{[3-(phenylmethane-sulfonamido)naphthalen-1-yl]methyl}-1H-pyr-rolo[2,3-b]pyridine-2-carboxylate]"
4,≤ 100,"CN(C)CCCCOC(=O)c1cc2ccc(CN)nc2n1Cc1cc(NS(=O)(=O)Cc2ccccc2)cc2ccccc12 [Compound 25, 4-(dimethylamino)butyl 6-(aminomethyl)-1-{[3-(phenylmethanesulfon-amido)naphthalen-1-yl]-methyl}-1H-pyrrolo[2,3-b]pyridine-2-carboxylate]"
5,≤ 100,"CN1CCC(CN(C)C(=O)c2cc3ccc(CN)nc3n2Cc2cc(NS(=O)(=O)Cc3ccccc3)cc3ccccc23)CC1 [Compound 26, 6-(aminomethyl)-N-methyl-N-[(1-methyl-piperidin-4-yl)methyl]-1-{[3-(phenylmethane-sulfonamido)naphthalen-1-yl]methyl}-1H-pyr-rolo[2,3-b]pyridine-2-carboxamide]"
6,≤ 100,"C[C@@H](COC(=O)c1cc2ccc(CN)nc2n1Cc1cc(NS(=O)(=O)Cc2ccccc2)cc2ccccc12)N(C)C [Compound 27, (2S)-2-(dimethylamino)-propyl 6-(aminomethyl)-1-{[3-(phenylmethane-sulfonamido)naphthalen-1-yl]methyl}-1H-pyr-rolo[2,3-b]pyridine-2-carboxylate]"
7,≤ 100,"CC(C)(C)n1cncc1COC(=O)c1cc2ccc(CN)nc2n1Cc1cc(NS(=O)(=O)Cc2ccccc2)cc2ccccc12 [Compound 29, (1-tert-butyl-1H-imid-azol-5-yl)methyl 6-(aminomethyl)-1-{[3-(phenylmethanesulfon-amido)naphthalen-1-yl]-methyl}-1H-pyrrolo[2,3-b]pyridine-2-carboxylate]"
8,≤ 100,"CCC1(COC(=O)c2cc3ccc(CN)nc3n2Cc2cc(NS(=O)(=O)Cc3ccccc3)cc3ccccc23)CCN(C)CC1 [Compound 31, (4-ethyl-1-methylpiper-idin-4-yl)methyl 6-(aminomethyl)-1-{[3-(phenylmethanesulfon-amido)naphthalen-1-yl]-methyl}-1H-pyrrolo[2,3-b]pyridine-2-carboxylate]"
9,≤ 100,"NCc1ccc2cc(C(=O)OCCN3CCNCC3)n(Cc3cc(NS(=O)(=O)Cc4ccccc4)cc4ccccc34)c2n1 [Compound 33, 2-(piperazin-1-yl)ethyl 6-(aminomethyl)-1-{[3-(phenylmethanesulfon-amido)naphthalen-1-yl]-methyl}-1H-pyrrolo[2,3-b]pyridine-2-carboxylate]"
10,≤ 100,"CN(C)CCCCCOC(=O)c1cc2ccc(CN)nc2n1Cc1cc(NS(=O)(=O)Cc2ccccc2)cc2ccccc12 [Compound 34, 5-(dimethylamino)pentyl 6-(aminomethyl)-1-{[3-(phenylmethanesulfon-amido)naphthalen-1-yl]-methyl}-1H-pyrrolo[2,3-b]pyridine-2-carboxylate]"
11,≤ 100,"CNCCCOC(=O)c1cc2ccc(CN)nc2n1Cc1cc(NS(=O)(=O)Cc2ccccc2)cc2ccccc12 [Compound 35, 3-(methylamino)propyl 6-(aminomethyl)-1-{[3-(phenylmethanesulfon-amido)naphthalen-1-yl]-methyl}-1H-pyrrolo[2,3-b]pyridine-2-carboxylate]"
